Patent publication US8993574B2, “Pyrrole antifungal agents” (F2G Ltd, priority 2008, dated 2015)
≈ marks a conversion by molar mass, not a printed value.

Experiments:
Format in all cases: cell-based
[1] = system: Aspergillus fumigatus AF293; assay: MIC, RPMI medium; details: for MIC grade, A. fumigatus: MIC banded into grades; for MIC: Aspergillus fumigatus, AF293, MIC banded into grades, read-out: MIC grade, A. fumigatus
In short: (§1)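 MIC taken as lowest drug level inhibiting growth by >80% relative to drug-free wells, read as OD at 485 nm after 24-48 h at 35° C. Organisms at 1−2×10^4 cfu/mL in RPMI (2% glucose, 0.135 M MOPS, pH 7.0) exposed to doubling dilutions spanning 50-0.05 mg/L.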

Candida albicans = assay: MIC, RPMI medium; details: 24-48 h at 35° C., >80% growth inhibition, banded into grades; for MIC: Candida albicans
In short: as §1

Candida glabrata = assay: MIC, RPMI medium; details: 24-48 h at 35° C., >80% growth inhibition, banded into grades; for MIC: Nakaseomyces glabratus
In short: as §1

Aspergillus flavus [2] = assay: MIC, RPMI medium; details: MIC banded into grades; for MIC: Aspergillus flavus, read-out: MIC grade, A. flavus
In short: as §1

Candida krusei = assay: MIC, RPMI medium; details: 24-48 h at 35° C., >80% growth inhibition, banded into grades; for MIC: Pichia kudriavzevii
In short: as §1

Aspergillus terreus AT49 [3] = assay: MIC, RPMI medium; details: for MIC grade, A. terreus 49: MIC banded into grades; for MIC: Aspergillus terreus, AT49, MIC banded into grades, read-out: MIC grade, A. terreus 49
In short: as §1

Candida parapsilosis = assay: MIC, RPMI medium; details: 24-48 h at 35° C., >80% growth inhibition, banded into grades; for MIC: Lodderomyces parapsilosis
In short: as §1

[4] = system: Aspergillus fumigatus AF210; assay: MIC, RPMI medium; details: for MIC grade, A. fumigatus 210: MIC banded into grades; for MIC: Aspergillus fumigatus, AF210, MIC banded into grades, read-out: MIC grade, A. fumigatus 210
In short: as §1

Candida tropicalis = assay: MIC, RPMI medium; details: 24-48 h at 35° C., >80% growth inhibition, banded into grades; for MIC: Candida tropicalis
In short: as §1

Aspergillus niger [5] = assay: MIC, RPMI medium; details: MIC banded into grades; for MIC: Aspergillus niger, read-out: MIC grade, A. niger
In short: as §1

Aspergillus terreus AT4 [6] = assay: MIC, RPMI medium; details: for MIC grade, A. terreus: MIC banded into grades; for MIC: Aspergillus terreus, AT4, MIC banded into grades, read-out: MIC grade, A. terreus
In short: as §1

[7] = system: Aspergillus fumigatus AF293; assay: MIC, YAG medium; details: 24 h at 35° C, MIC banded into grades; for MIC: Aspergillus fumigatus, read-out: MIC grade, A. fumigatus
In short: (§2)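 Broth microdilution in YAG medium tests compound over 50-0.05 mg/L against spores at 1−2×10^4 cfu/mL. After 24 h incubation at 35° C, optical density at 485 nm gives growth, and the MIC is the lowest concentration reducing it by more than 70% relative to untreated control.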

Aspergillus flavus [8] = assay: MIC, YAG medium; details: 24 h at 35° C, MIC banded into grades; for MIC: Aspergillus flavus, 24 h, read-out: MIC grade, A. flavus
In short: as §2

Aspergillus terreus AT49 [9] = assay: MIC, YAG medium; details: 24 h at 35° C, MIC banded into grades; for MIC: Aspergillus terreus, read-out: MIC grade, A. terreus 49
In short: as §2

[10] = system: Aspergillus fumigatus AF210; assay: MIC, YAG medium; details: 24 h at 35° C, MIC banded into grades; for MIC: Aspergillus fumigatus, read-out: MIC grade, A. fumigatus 210
In short: as §2

Aspergillus niger [11] = assay: MIC, YAG medium; details: 24 h at 35° C, MIC banded into grades; for MIC: Aspergillus niger, read-out: MIC grade, A. niger
In short: as §2

Aspergillus terreus AT4 [12] = assay: MIC, YAG medium; details: 24 h at 35° C, MIC banded into grades; for MIC: Aspergillus terreus, read-out: MIC grade, A. terreus
In short: as §2

SMILES | MIC [1] [µg/mL] | MIC (Candida albicans) [µg/mL] | MIC (Candida glabrata) [µg/mL] | MIC (Aspergillus flavus [2]) [µg/mL] | MIC (Candida krusei) [µg/mL] | MIC (Aspergillus terreus AT49 [3]) [µg/mL] | MIC (Candida parapsilosis) [µg/mL] | MIC [4] [µg/mL] | MIC (Candida tropicalis) [µg/mL] | MIC (Aspergillus niger [5]) [µg/mL] | MIC (Aspergillus terreus AT4 [6]) [µg/mL] | MIC [7] [µg/mL] | MIC (Aspergillus flavus [8]) [µg/mL] | MIC (Aspergillus terreus AT49 [9]) [µg/mL] | MIC [10] [µg/mL] | MIC (Aspergillus niger [11]) [µg/mL] | MIC (Aspergillus terreus AT4 [12]) [µg/mL] | other results
CCOC(=O)Cn1ccc(-c2ccccc2)c1C(=O)C(=O)Nc1ccc(N2CCN(c3cc(C)cc(C)n3)CC2)cc1 [Example 73, (2-{4-[4-(4,6-Dimethyl-pyridin-2-yl)-piperazin-1-yl]-phenylaminooxalyl}-3-phenyl-pyrrol-1-yl)-acetic acid ethyl ester] | – | – | – | – | – | – | – | – | – | – | – | – | – | – | – | – | – | MIC grade, A. fumigatus [1]: 3 (A grade of 3 represents an MIC of less than 1 mg/L); Candida MIC, C. albicans (Candida albicans): 2 (A grade of 2 represents an MIC of from 1 to 10 mg/L); Candida MIC, C. glabrata (Candida glabrata): 3 (A grade of 3 represents an MIC of less than 1 mg/L); MIC grade, A. flavus (Aspergillus flavus [2]): 1 (a grade of 1 represents an MIC of greater than 10 mg/L); Candida MIC, C. krusei (Candida krusei): 2 (A grade of 2 represents an MIC of from 1 to 10 mg/L); MIC grade, A. terreus 49 (Aspergillus terreus AT49 [3]): 1 (a grade of 1 represents an MIC of greater than 10 mg/L); Candida MIC, C. parapsilosis (Candida parapsilosis): 2 (A grade of 2 represents an MIC of from 1 to 10 mg/L); MIC grade, A. fumigatus 210 [4]: 3 (A grade of 3 represents an MIC of less than 1 mg/L); Candida MIC, C. tropicalis (Candida tropicalis): 3 (A grade of 3 represents an MIC of less than 1 mg/L); MIC grade, A. niger (Aspergillus niger [5]): 3 (A grade of 3 represents an MIC of less than 1 mg/L); MIC grade, A. terreus (Aspergillus terreus AT4 [6]): 1 (a grade of 1 represents an MIC of greater than 10 mg/L); MIC grade, A. fumigatus [7]: 3 (A grade of 3 represents an MIC of less than 1 mg/L); MIC grade, A. flavus (Aspergillus flavus [8]): 1 (a grade of 1 represents an MIC of greater than 10 mg/L); MIC grade, A. terreus 49 (Aspergillus terreus AT49 [9]): 2 (A grade of 2 represents an MIC of from 1 to 10 mg/L); MIC grade, A. fumigatus 210 [10]: 3 (A grade of 3 represents an MIC of less than 1 mg/L); MIC grade, A. niger (Aspergillus niger [11]): 3 (A grade of 3 represents an MIC of less than 1 mg/L); MIC grade, A. terreus (Aspergillus terreus AT4 [12]): 1 (a grade of 1 represents an MIC of greater than 10 mg/L)
COC(=O)Cn1ccc(-c2ccccc2)c1C(=O)C(=O)Nc1ccc(N2CCN(c3cc(C)cc(C)n3)CC2)cc1 [Example 74, (2-{4-[4-(4,6-Dimethyl-pyridin-2-yl)-piperazin-1-yl]-phenylaminooxalyl}-3-phenylpyrrol-1-yl)-acetic acid methyl ester] | – | – | – | – | – | – | – | – | – | – | – | – | – | – | – | – | – | MIC grade, A. fumigatus [1]: 3 (A grade of 3 represents an MIC of less than 1 mg/L); Candida MIC, C. albicans (Candida albicans): 2 (A grade of 2 represents an MIC of from 1 to 10 mg/L); Candida MIC, C. glabrata (Candida glabrata): 3 (A grade of 3 represents an MIC of less than 1 mg/L); MIC grade, A. flavus (Aspergillus flavus [2]): 1 (a grade of 1 represents an MIC of greater than 10 mg/L); Candida MIC, C. krusei (Candida krusei): 2 (A grade of 2 represents an MIC of from 1 to 10 mg/L); MIC grade, A. terreus 49 (Aspergillus terreus AT49 [3]): 2 (A grade of 2 represents an MIC of from 1 to 10 mg/L); Candida MIC, C. parapsilosis (Candida parapsilosis): 3 (A grade of 3 represents an MIC of less than 1 mg/L); MIC grade, A. fumigatus 210 [4]: 3 (A grade of 3 represents an MIC of less than 1 mg/L); Candida MIC, C. tropicalis (Candida tropicalis): 3 (A grade of 3 represents an MIC of less than 1 mg/L); MIC grade, A. niger (Aspergillus niger [5]): 3 (A grade of 3 represents an MIC of less than 1 mg/L); MIC grade, A. terreus (Aspergillus terreus AT4 [6]): 2 (A grade of 2 represents an MIC of from 1 to 10 mg/L); MIC grade, A. fumigatus [7]: 3 (A grade of 3 represents an MIC of less than 1 mg/L); MIC grade, A. flavus (Aspergillus flavus [8]): 1 (a grade of 1 represents an MIC of greater than 10 mg/L); MIC grade, A. terreus 49 (Aspergillus terreus AT49 [9]): 2 (A grade of 2 represents an MIC of from 1 to 10 mg/L); MIC grade, A. fumigatus 210 [10]: 3 (A grade of 3 represents an MIC of less than 1 mg/L); MIC grade, A. niger (Aspergillus niger [11]): 3 (A grade of 3 represents an MIC of less than 1 mg/L); MIC grade, A. terreus (Aspergillus terreus AT4 [12]): 2 (A grade of 2 represents an MIC of from 1 to 10 mg/L)
Cc1cc(C)nc(N2CCN(c3ccc(NC(=O)C(=O)c4c(-c5ccccc5)cc(C)n4CCN(C)C)cc3)CC2)c1 [Example 86, 2-[1-(2-Dimethylamino-ethyl)-5-methyl-3-phenyl-1H-pyrrol-2-yl]-N-{4-[4-(4,6-dimethyl-pyridin-2-yl)-piperazin-1-yl]-phenyl}-2-oxo-acetamide] | > 10 | < 1 | < 1 | > 10 | < 1 | > 10 | < 1 | > 10 | < 1 | > 10 | > 10 | > 10 | 1 to 10 (≈ 1.77 to 17.7 µM) | > 10 | > 10 | > 10 | > 10 | –

Continued, in another order:

MIC [1] [µg/mL] | MIC (Candida albicans) [µg/mL] | MIC (Candida glabrata) [µg/mL] | MIC (Aspergillus flavus [2]) [µg/mL] | MIC (Candida krusei) [µg/mL] | MIC (Aspergillus terreus AT49 [3]) [µg/mL] | MIC (Candida parapsilosis) [µg/mL] | MIC [4] [µg/mL] | MIC (Candida tropicalis) [µg/mL] | MIC (Aspergillus niger [5]) [µg/mL] | MIC (Aspergillus terreus AT4 [6]) [µg/mL] | MIC [7] [µg/mL] | MIC (Aspergillus flavus [8]) [µg/mL] | MIC (Aspergillus terreus AT49 [9]) [µg/mL] | MIC [10] [µg/mL] | MIC (Aspergillus niger [11]) [µg/mL] | MIC (Aspergillus terreus AT4 [12]) [µg/mL] | SMILES | other results
> 10 | < 1 | < 1 | > 10 | < 1 | > 10 | < 1 | 1 to 10 (≈ 1.82 to 18.2 µM) | < 1 | > 10 | > 10 | 1 to 10 (≈ 1.82 to 18.2 µM) | > 10 | > 10 | 1 to 10 (≈ 1.82 to 18.2 µM) | > 10 | > 10 | CNC(=O)Cn1ccc(-c2ccccc2)c1C(=O)C(=O)Nc1ccc(N2CCN(c3cc(C)cc(C)n3)CC2)cc1 [Example 76, N-{4-[4-(4,6-Dimethyl-pyridin-2-yl)-piperazin-1-yl]-phenyl}-2-(1-methylcarbamoylmethyl-3-phenyl-1H-pyrrol-2-yl)-2-oxo-acetamide] | –
> 10 | < 1 | < 1 | > 10 | < 1 | > 10 | < 1 | > 10 | < 1 | > 10 | > 10 | > 10 | > 10 | > 10 | > 10 | > 10 | > 10 | COCCn1ccc(-c2ccccc2)c1C(=O)C(=O)Nc1ccccc1 [Example 81, 2-[1-(2-Methoxy-ethyl)-3-phenyl-1H-pyrrol-2-yl]-2-oxo-N-phenyl-acetamide] | –
> 10 | < 1 | < 1 | > 10 | < 1 | > 10 | < 1 | > 10 | < 1 | > 10 | > 10 | > 10 | > 10 | > 10 | > 10 | > 10 | > 10 | Cc1cc(C)nc(N2CCN(c3ccc(NC(=O)C(=O)c4c(-c5ccccc5)ccn4CCN(C)C)cc3)CC2)c1 [Example 84, 2-[1-(2-Dimethylamino-ethyl)-3-phenyl-1H-pyrrol-2-yl]-N-{4-[4-(4,6-dimethyl-pyridin-2-yl)-piperazin-1-yl]-phenyl}-2-oxo-acetamide] | –
> 10 | 1 to 10 (≈ 1.82 to 18.2 µM) | 1 to 10 (≈ 1.82 to 18.2 µM) | > 10 | 1 to 10 (≈ 1.82 to 18.2 µM) | 1 to 10 (≈ 1.82 to 18.2 µM) | 1 to 10 (≈ 1.82 to 18.2 µM) | > 10 | 1 to 10 (≈ 1.82 to 18.2 µM) | 1 to 10 (≈ 1.82 to 18.2 µM) | 1 to 10 (≈ 1.82 to 18.2 µM) | > 10 | > 10 | > 10 | > 10 | 1 to 10 (≈ 1.82 to 18.2 µM) | > 10 | Cc1cc(C)nc(N2CCN(c3ccc(NC(=O)C(=O)c4cc(-c5ccccc5)cn4CCN(C)C)cc3)CC2)c1 [Example 85, 2-[1-(2-Dimethylamino-ethyl)-4-phenyl-1H-pyrrol-2-yl]-N-{4-[4-(4,6-dimethyl-pyridin-2-yl)-piperazin-1-yl]-phenyl}-2-oxo-acetamide] | –
